Assay results: patent US10428070B2, “Hepatitis B antiviral agents” (Enanta Pharmaceuticals, Inc., priority 2017, dated 2019)

Experiments:
[1] = test system: HBV; assay: HepAD38 antiviral assay: reduction of viral product accumulation (virion DNA by qPCR, HBsAg or HBeAg by ELISA); format: cell-based, hepatitis B virus; settings: HepAD38 cells, harvest five days after compound addition, 50% reduction of viral product accumulation relative to no drug controls
Protocol: Methods: HepAD38 cells are maintained as previously reported (Ladner et al, Antimicrob. Agents Chemother. 1997, […], 1715). Briefly, cells are passaged upon attaining confluency in DMEM/F12 media in the presence of 10% FBS, Penn/Strep, 250 μg/mL G418, and 1 μg/ml tetracycline. Novel compounds are screened by first washing cells three times with PBS to remove tetracycline, and plating in 96 well plates at 35,000 cells/well. Compounds dissolved in DMSO are then diluted 1:200 into wells containing cells. Five days after compound addition, material is harvested for analysis. For an extended 8 day analysis, cells are plated and treated as described above, but media and compound are refreshed on d2 and d5 post initial treatment.
On harvest day, virion DNA is obtained by lysing with Sidestep Lysis and Stabilization Buffer and then quantified via quantitative real time PCR. Commercially available ELISA kits are used to quantitate the viral proteins HBsAg (Alpco) or HbeAg (US Biological) by following the manufacturer's recommended protocol after diluting samples to match the linear range of their respective assays.

[2] = Compound toxicity, total ATP levels (ATPLite); format: cell-based; settings: human, HepG2 cells, three days after compound addition, 50% reduction of total ATP levels (ATPLite) relative to no drug controls
Protocol: Compound toxicity is evaluated by seeding cells at 15,000 cells/well and treating with compound as described above.

[3] = Hepatitis B virus, HePAD38, 120 h

Row | SMILES | EC50 [1, 3] [nM] | EC50 [1] [nM] | CC50 at 3 days [2] [nM]
1 | CCOC(=O)C1=C2C[C@@]3(CNC(=O)N3)CN2C(c2nccs2)=N[C@H]1c1ccc(F)cc1Cl (relative stereo) [Example 13] | > 400 |  | 
2 | O=C(O)CCN1C(=O)OC[C@@]12CC1=C(c3ccn(C(F)F)n3)[C@H](c3ccc(F)cc3Cl)N=C(c3nccs3)N1C2 [Example 30] |  | < 100 | 
3 | COC(=O)CCCN1C(=O)OC[C@]12CC1=C(c3ccn(C(F)F)n3)[C@H](c3ccc(F)cc3Cl)N=C(c3nccs3)N1C2 [Example 32] | < 100 |  | 
4 | O=C(O)CN1C(=O)OC[C@]12CC1=C(c3ccn(C(F)F)n3)[C@H](c3ccc(F)cc3Cl)N=C(c3nccs3)N1C2 [Example 28] | > 400 |  | 
5 | COC(=O)CCN1C(=O)OC[C@@]12CC1=C(c3ccn(C(F)F)n3)[C@H](c3ccc(F)cc3Cl)N=C(c3nccs3)N1C2 [Example 21] | > 400 |  | 
6 | CN1C(=O)OC[C@]12CC1=C(c3ccn(C(F)F)n3)[C@H](c3ccc(F)cc3Cl)N=C(c3nccs3)N1C2 [Example 26] | < 100 |  | 
7 | O=C1N[C@@]2(CO1)CC1=C(c3ccn(C(F)F)n3)[C@H](c3ccc(F)cc3Cl)N=C(c3nccs3)N1C2 [Example 17] | < 100 |  | > 25000
8 | CCOC(=O)C1=C2C[C@]3(CNS(=O)(=O)N3)CN2C(c2nccs2)=N[C@H]1c1ccc(F)cc1Cl (relative stereo) [Example 16] | < 100 |  | 
9 | O=C1N[C@@]2(CO1)CC1=C(c3cnn(C(F)F)c3)[C@H](c3ccc(F)cc3Cl)N=C(c3nccs3)N1C2 [Example 3] | < 100 |  | > 25000
10 | O=C1OC[C@]2(CC3=C(c4ccn(C(F)F)n4)[C@H](c4ccc(F)cc4Cl)N=C(c4nccs4)N3C2)N1C[C@@H](O)CO [Example 35] | 100 to 400 |  | 
11 | CC1OC(=O)N[C@]12CC1=C(c3ccn(C(F)F)n3)[C@H](c3ccc(F)cc3Cl)N=C(c3nccs3)N1C2 (stereo partly shown) [Example 38] | < 100 |  | 
12 | O=C1N[C@]2(CC3=C(c4ccn(C(F)F)n4)[C@H](c4ccc(F)cc4Cl)N=C(c4nccs4)N3C2)C(CO)O1 (stereo partly shown) [Example 40] | < 100 |  | 
13 | CCOC(=O)C1=C2C[C@@]3(CNS(=O)(=O)N3)CN2C(c2nccs2)=N[C@H]1c1ccc(F)cc1Cl (relative stereo) [Example 15] | < 100 |  | > 25000
14 | O=C1N[C@]2(CO1)CC1=C(c3cnn(C(F)F)c3)[C@H](c3ccc(F)cc3Cl)N=C(c3nccs3)N1C2 [Example 4] | < 100 |  | 
15 | O=C1NC[C@]2(CC3=C(c4cnn(C(F)F)c4)[C@H](c4ccc(F)cc4Cl)N=C(c4nccs4)N3C2)N1 [Example 2] | < 100 |  | > 25000
16 | CCOC(=O)C1=C2C[C@]3(COC(=O)N3)CN2C(c2nccs2)=N[C@H]1c1ccc(F)cc1Cl (relative stereo) [Example 12] | < 100 |  | 
17 | O=C(O)CCN1C(=O)OC[C@@]12CC1=C(c3ccn(C(F)F)n3)[C@H](c3ccc(F)cc3Cl)N=C(c3nccs3)N1C2 [Example 22] |  | > 400 | 
18 | COCOCC1OC(=O)N[C@]12CC1=C(c3ccn(C(F)F)n3)[C@H](c3ccc(F)cc3Cl)N=C(c3nccs3)N1C2 (stereo partly shown) [Example 39] | 100 to 400 |  | 
19 | C=CCN1C(=O)OC[C@]12CC1=C(c3ccn(C(F)F)n3)[C@H](c3ccc(F)cc3Cl)N=C(c3nccs3)N1C2 [Example 31] | > 400 |  | 
20 | O=C1N[C@]2(CO1)CC1=C(c3ccn(C(F)F)n3)[C@H](c3ccc(F)cc3Cl)N=C(c3nccs3)N1C2 [Example 18] | < 100 |  | > 25000
21 | CCN1C(=O)OC[C@@]12CC1=C(c3ccn(C(F)F)n3)[C@H](c3ccc(F)cc3Cl)N=C(c3nccs3)N1C2 [Example 20] | 100 to 400 |  | 

Row | SMILES | EC50 [1, 3] [nM] | EC50 [1] [nM] | CC50 at 3 days [2] [nM]
22 | C=CCN1C(=O)OC[C@@]12CC1=C(c3ccn(C(F)F)n3)[C@H](c3ccc(F)cc3Cl)N=C(c3nccs3)N1C2 [Example 25] | 100 to 400 |  | 
23 | COC(=O)CN1C(=O)OC[C@]12CC1=C(c3ccn(C(F)F)n3)[C@H](c3ccc(F)cc3Cl)N=C(c3nccs3)N1C2 [Example 27] | > 400 |  | 
24 | O=C1OC[C@]2(CC3=C(c4ccn(C(F)F)n4)[C@H](c4ccc(F)cc4Cl)N=C(c4nccs4)N3C2)N1C[C@H](O)CO [Example 34] | > 400 |  | 
25 | O=C1NC[C@]2(CC3=C(c4ccn(C(F)F)n4)[C@H](c4ccc(F)cc4Cl)N=C(c4nccs4)N3C2)O1 [Example 41] | 100 to 400 |  | 
26 | CN1C(=O)OC[C@@]12CC1=C(c3ccn(C(F)F)n3)[C@H](c3ccc(F)cc3Cl)N=C(c3nccs3)N1C2 [Example 19] | < 100 |  | > 25000
27 | O=S1(=O)NC[C@]2(CC3=C(c4cnn(C(F)F)c4)[C@H](c4ccc(F)cc4Cl)N=C(c4nccs4)N3C2)N1 [Example 5] | < 100 |  | 
28 | COC(=O)CN1C(=O)OC[C@@]12CC1=C(c3ccn(C(F)F)n3)[C@H](c3ccc(F)cc3Cl)N=C(c3nccs3)N1C2 [Example 23] | 100 to 400 |  | 
29 | CS(=O)(=O)OC1CCCC12CC1=C(c3cnn(C(F)F)c3)[C@H](c3ccc(F)cc3Cl)N=C(c3nccs3)N1C2 (stereo partly shown) [Example 6] | 100 to 400 |  | 
30 | O=C(O)CN1C(=O)OC[C@@]12CC1=C(c3ccn(C(F)F)n3)[C@H](c3ccc(F)cc3Cl)N=C(c3nccs3)N1C2 [Example 24] | > 400 |  | 
31 | O=C1NC[C@@]2(CC3=C(c4ccn(C(F)F)n4)[C@H](c4ccc(F)cc4Cl)N=C(c4nccs4)N3C2)O1 [Example 42] | 100 to 400 |  | 
32 | C=CCN1C[C@@]2(CC3=C(c4ccn(C(F)F)n4)[C@H](c4ccc(F)cc4Cl)N=C(c4nccs4)N3C2)OC1=O [Example 43] | < 100 |  | > 25000
33 | C/C=C/CN1C(=O)OC[C@]12CC1=C(c3ccn(C(F)F)n3)[C@H](c3ccc(F)cc3Cl)N=C(c3nccs3)N1C2 [Example 36] | > 400 |  | 
34 | CCOC(=O)C1=C2C[C@@]3(COC(=O)N3)CN2C(c2nccs2)=N[C@H]1c1ccc(F)cc1Cl (relative stereo) [Example 11] | < 100 |  | 
35 | CC1OC(=O)N[C@@]12CC1=C(c3ccn(C(F)F)n3)[C@H](c3ccc(F)cc3Cl)N=C(c3nccs3)N1C2 (stereo partly shown) [Example 44] | < 100 |  | 
36 | O=S1(=O)NC[C@@]2(CC3=C(c4cnn(C(F)F)c4)[C@H](c4ccc(F)cc4Cl)N=C(c4nccs4)N3C2)N1 [Example 10] | < 100 |  | > 25000
37 | CCOC(=O)C1=C2C[C@]3(CNC(=O)N3)CN2C(c2nccs2)=N[C@H]1c1ccc(F)cc1Cl (relative stereo) [Example 14] | < 100 |  | 
38 | C=CC1OC(=O)N[C@]12CC1=C(c3ccn(C(F)F)n3)[C@H](c3ccc(F)cc3Cl)N=C(c3nccs3)N1C2 (stereo partly shown) [Example 37] | 100 to 400 |  | 
39 | Fc1ccc([C@@H]2N=C(c3nccs3)N3CC4(CCCCC4)CC3=C2c2cnn(C(F)F)c2)c(Cl)c1 [Example 9] | < 100 |  | 
40 | O=C1NC[C@@]2(CC3=C(c4cnn(C(F)F)c4)[C@H](c4ccc(F)cc4Cl)N=C(c4nccs4)N3C2)N1 [Example 1] | < 100 |  | 
41 | O=C(O)CCCN1C(=O)OC[C@]12CC1=C(c3ccn(C(F)F)n3)[C@H](c3ccc(F)cc3Cl)N=C(c3nccs3)N1C2 [Example 33] | 100 to 400 |  | 
